These results are taken from article PMC6222787, “Anti-Inflammatory Activities of Compounds Isolated from the Rhizome of Anemarrhena asphodeloides” (Molecules : A Journal of Synthetic Chemistry and Natural …, 2018).

“And” between values parts separate entries of the source, which are not always exact repeats. Identical values can stand only once. Like-named read-outs stand apart in the source and are kept apart here.

Data set [1] has as its system NF-κB. In words: LPS-induced activation of NF-κB (Western blot, nuclear p65). It counts as cell-based, mouse. Conditions: pretreated 1 h, LPS 100 ng/mL. The procedure: (§1) Figure 6 Effect of TBIII and t-HL on LPS-induced activation of Akt (A,C) and NF-κB (B,D) in N9 cells. Cells were treated with different concentrations of TBIII and t-HL for 1 h prior to stimulation with LPS (100 ng/mL). Nuclear and cytoplasmic proteins were obtained and analyzed by western blot. PAR (10 μM) was used as a positive control. The data shown represent the mean ± S.E.M of three independent experiments. * p < 0.05, ** p < 0.01, *** p < 0.001 versus the LPS-treated group; ^# p < 0.05, ^## p < 0.01, ^### p < 0.001 versus the control group.
(§2) N9 cells were plated into 12-well plates (4 × 10^5 cells/well) and pretreated with different concentrations of TBIII and t-HL for 1 h, then stimulated by 100 ng/mL of LPS for 24 h. Nuclear and cytoplasmic proteins were obtained with nuclear and cytoplasmic protein extraction kit (Beyotime Biotechnology, Shanghai, China) according to the manufacturer′s protocol. Proteins were collected by SDS-PAGE Sample Loading Buffer (Yeasen, Shanghai, China) and heated at 99 °C for 10 min. Proteins in sample loading buffer were separated on 10% sodium dodecyl sulfate (SDS)-polyacrylamide gel electrophoresis (PAGE) and followed by transferring to nitrocellulose membranes (Whatman Protran, Dassel, Germany). […] The immunoreactive bands were quantified using the NIH Image J software (NIH, Bethesda, MD, USA).

Data set [2] deals with Akt. Description: LPS-induced activation of Akt (Western blot). It counts as cell-based, mouse. Conditions: pretreated 1 h, LPS 100 ng/mL. How it is done: as §1, §2
Background: A western blot detects proteins with antibodies after separation by electrophoresis.

Data set [3] has as its system IL-6. In words: LPS-induced IL-6 mRNA expression (real-time PCR). Type of data set: cell-based, mouse. Conditions: pretreated 1 h, LPS 100 ng/mL 4 h, dose-dependent. The procedure: (§3) Figure 4 Effects of TBIII (A) and t-HL (B) on LPS-induced mRNA expression of pro-inflammatory cytokines in N9 microglial cells. Cells were treated with different concentrations of TBIII and t-HL for 1 h and then stimulated with LPS (100 ng/mL) for 4 h. TNF-α and IL-6 mRNA levels were determined by real-time PCR analysis. […] The data were obtained from three independent experiments and expressed as the means ± […] < 0.001 versus the LPS-treated group; ^### p < 0.001 versus the control group. Total RNA was extracted from cells using Trizol reagent (Invitrogen, Carlsbad, CA, USA). Reverse transcription of RNA was performed with the Reverse Transcription System […] kit (Promega, Madison, WI, USA) according to the manufacturer's protocol. The complementary DNA (cDNA) was subsequently subjected to Real-Time PCR to quantify the transcripts of TNF-α and IL-6 using SYBR® Green Real-time PCR Master Mix (TOYOBO, Osaka, Japan). […] The primers for the mouse housekeeping gene glyceraldehyde-3-phosphate dehydrogenase ([…] was performed according to the following conditions: 94 °C for 3 min, 40 cycles of denaturation at 94 °C for 30 s, annealing at 56 °C for 45 s, extension at 72 °C for 30 s, followed by a final extension at 72 °C for 10 min. The quantified fold changes in messenger RNA (mRNA) in each sample were normalized to GAPDH expression and calculated using the 2exp (-ΔΔCt) method.
Background: In qPCR the cycle at which signal appears reflects the starting amount.

For data set [4], the system named is TNF-α. In words: LPS-induced TNF-α production (ELISA). It counts as cell-based, mouse. Conditions: pretreated 1 h, LPS 100 ng/mL 24 h. The procedure:
(§4) Figure 5 Effects of TBIII (A) and t-HL (B) on LPS-induced production of pro-inflammatory cytokines in N9 microglial cells. Cells were pre-treated with TBIII and t-HL for 1 h and then stimulated with LPS (100 ng/mL) for 24 h. The protein levels of TNF-α and IL-6 determined by ELISA according to manufacturer′s instructions. PAR (10 μM) was used as a positive control. The data were obtained from three independent experiments and expressed as the means ± S.E.M. * p < 0.05, ** p < 0.01, *** p < 0.001 versus the LPS-treated group; ^## p < 0.01, ^### p < 0.001 versus the control group.
(§5) N9 cells were plated into 24-well plates (2 × 10^5 cells/well). After cells became adherent, they were pretreated with different concentrations of TBIII and t-HL for 1 h before stimulation with 100 ng/mL of LPS. The supernatants of cultured medium were collected and the production of TNF-α and IL-6 was measured after incubation for 24 h using an ELISA kit according to manufacturer′s instructions.

In data set [5] the test system is mouse model of postpartum depression. Conditions: cited from earlier work.
Data set [6] has as its system N9 microglial cells.
Description: (§6) The N9 microglial cell line was obtained from China Cell Line Bank. The cells were grown at 37 °C in IMDM supplemented with 10% heat-inactivated FBS under a humidified atmosphere of 5% CO2. In this experiment, cells were allowed to acclimate for 24 h before treatments.
(§7) Cell viability was evaluated by the MTT reduction assay [36]. Cells were seeded in 96-well plates at a density of 2 × 10^4 cells/well and allowed to grow for 24 h before treatments. Thereafter, 100 μL medium containing various concentrations (0–50 μM) of compounds were added and incubated for another 24 h. MTT was dissolved in DD water (5 mg/mL) and 10 μL were added to each well. After 4 h, the medium was removed and 100 μL DMSO were filled in each well. The optical density was measured at 490 nm on a Flexstation 3 (Molecular Devices, Silicon Valley, CA, USA).
Data set [7] has as its system iNOS. In words: iNOS expression by Western blot in LPS-stimulated N9 cells. Type of data set: cell-based, mouse. Conditions: pretreated 1 h, LPS 100 ng/mL 24 h, dose-dependent. The procedure:
Figure 3 Effects of TBIII (A) and t-HL (B) on the expression of iNOS induced by LPS in N9 microglial cells. The iNOS protein levels were analyzed by Western blot. Cells were treated with different concentrations of TBIII and t-HL for 1 h and then stimulated with LPS (100 ng/mL) for 24 h. The iNOS signal was normalized to the β-actin signal. Parthenolide (PAR, 10 μM) was used as a positive control. The data were obtained from three independent experiments and expressed as the means ± S.E.M. * p < 0.05, ** p < 0.01, *** p < 0.001 versus the LPS-treated group; ^### p < 0.001 versus the control group.
as §2

Data set [8] concerns IL-6. In words: LPS-induced IL-6 production (ELISA). It counts as cell-based, mouse. Conditions: pretreated 1 h, LPS 100 ng/mL 24 h. The procedure:
as §4, §5
(In general: ELISA stands for enzyme-linked immunosorbent assay.)

In data set [9] the test system is TNF-α. Description: LPS-induced TNF-α mRNA expression (real-time PCR). It counts as cell-based, mouse. Conditions: pretreated 1 h, LPS 100 ng/mL 4 h, dose-dependent. How it is done: as §3
Data set [10] relates to LPS-induced NO production in N9 microglial cells. In words: LPS-induced NO production (Griess assay). It counts as cell-based, mouse. Conditions: LPS 100 ng/mL, 24 h; for Nitrite: control 4.60, LPS group 31.81 μM; for % Inhibition of NO Production: 50 µM. How it is done:
Figure 2 Inhibitory effects of TBIII (A) and t-HL (B) in LPS-stimulated N9 microglial cells. Cells were pretreated with different concentrations of TBIII and t-HL 1 h prior to the addition of LPS (100 ng/mL) and were further incubated for 24 h. NO production was determined by using the Griess reagent. IC50 values and curve fitting were determined using Graphpad Prism (GraphPad, Avenida, CA, USA).
Accumulation of nitrite, a metabolite of NO in the culture media, was measured by Griess assay as previously reported. Briefly, cells were stimulated with 100 ng/mL of LPS for 24 h in the presence of the test compounds (0–50 μM).

Data set [11] can be described thus: in vitro. Conditions: mouse, % Cell Viability.
Description: as §6, §7
In data set [12] the test system is neuronal injury. More on the design: method as in PMID 23287539. Conditions: cited from earlier work.
Data set [13] relates to N9 microglial cells. In words: MTT assay for cell viability. Conditions: MTT.
Description: as §6, §7
The nature of data set [14]: MTT assay for cell viability. Conditions: mouse, N9 microglial cells, % Cell Viability, 24 h, MTT, mean ± S.E.M.
Description: as §6, §7
The test system of data set [15] is scopolamine-induced cognition deficits. Further details: method as in PMID 27444169. Conditions: mice; cited from earlier work.

As a reminder, the viability is a read-out of living cells in per cent, often relative to untreated cells. Turning to `CC1=C(CCC(C)COC2OC(CO)C(O)C(O)C2O)OC2CC3C4CCC5CC(OC6OC(CO)C(O)C(O)C6OC6OC(CO)C(O)C(O)C6O)CCC5(C)C4CCC3(C)C12` (centres unmarked) [Compound 11, Timosaponin BIII], the “NF-κB signaling / p65 subunit into nuclei” value in data set [1] is “no effect”. In [2], the “phosphorylation of Akt / PI3K/Akt signaling activation” value is on record as “attenuated”. The “IL-6 mRNA expression” value in [3] is listed as “significantly suppressed”. The “TNF-α production (protein)” value in [4] is “significantly suppressed”. Besides, the antidepressive activity result in data set [5] is reported as “antidepressive activity”. Besides, the “cytotoxicity against N9 microglial cells (in words)” value in data set [6] is recorded as “non-cytotoxic”. For the same compound, the “% Cell Viability” value in data set [6] (mouse, 24 h, 50 µM) was 74.93 ± 3.15 %. The iNOS protein expression result in [7] is recorded as “significantly attenuated”. In addition, the “IL-6 production (protein)” value in data set [8] was “significantly suppressed”. The “TNF-α mRNA expression” value in data set [9] is “significantly suppressed”. The Nitrite came out at 8.55 ± 0.25 µM in data set [10] (25 μM compound, mean ± S.E.M.) and 4.24 ± 0.10 µM in [10] (50 μM compound, mean ± S.E.M.). In addition, the “% Inhibition of NO Production” value in data set [10] (50 μM compound, mean ± S.E.M.) was 86% and 86.67 ± 0.37 %. Further, in data set [11], the viability at 24 h, 25 µM was 120 ± 11.8%.

For orientation: inhibition means the share of the control response that was lost under treatment. Broadly, the IC50 is the point on the concentration scale where inhibition reaches its midpoint. `C=CC(C=Cc1ccc(O)cc1)c1ccc(O)cc1` (stereo not drawn) [Compound 23, trans-Hinokiresinol]: the “NF-κB signaling / p65 subunit into nuclei” value in data set [1] is on record as “significantly prevented”. Moreover, in data set [2], the “phosphorylation of Akt / PI3K/Akt signaling activation” value was “not affected”. Besides, the “IL-6 mRNA expression” value in data set [3] is recorded as “significantly suppressed”. The “effect on neuronal injury” value in data set [12] was “protective effect”. The “TNF-α production (protein)” value in [4] is reported as “significantly suppressed”. Moreover, the “cytotoxicity against N9 microglial cells (in words)” value in data set [13] was “non-cytotoxic”. Also, the viability at 24 h, 25 µM in [14] (25 μM compound) stood at 108 ± 4.39%. Moreover, the viability at 24 h, 50 µM in [14] (50 μM compound) was 98.3 ± 11.6%. Further, in data set [7], the iNOS protein expression result is “significantly attenuated”. In addition, the “IL-6 production (protein)” value in data set [8] is reported as “significantly suppressed”. In addition, the “TNF-α mRNA expression” value in data set [9] was “significantly suppressed”. For the same compound, the Nitrite in data set [10] (25 μM compound, mean ± S.E.M.) came out at 14.93 ± 0.41 µM; in [10] (50 μM compound, mean ± S.E.M.) it was 5.18 ± 0.06 µM. The “% Inhibition of NO Production” value in data set [10] (50 μM compound, mean ± S.E.M.) came to 83.73 ± 0.22 %. Also, in data set [10] (Mus musculus, N9, 24 h, 25 μM compound, mean ± S.E.M., read-out: % Inhibition of NO Production), the inhibition at 25 µM is above 50%. Further, the inhibition at 50 µM in data set [10] (Mus musculus, N9, 24 h, 50 μM compound, mean ± S.E.M., read-out: % Inhibition of NO Production) was found to be 83%. Further, the IC50 in data set [10] (Mus musculus, N9, pretreated 1 h, Griess reagent, read-out: IC50, inhibition of NO production) worked out at 39.1 µM.

Consider `C[C@@H](CC[C@@]1(O)O[C@H]2C[C@H]3[C@@H]4CC[C@@H]5C[C@@H](O[C@@H]6O[C@H](CO)[C@H](O)[C@H](O)[C@H]6O[C@@H]6O[C@H](CO)[C@@H](O)[C@H](O)[C@H]6O)CC[C@]5(C)[C@H]4CC[C@]3(C)[C@H]2[C@@H]1C)CO[C@@H]1O[C@H](CO)[C@@H](O)[C@H](O)[C@H]1O` [Timosaponin BII], for which, in data set [15], the “effect on scopolamine-induced cognition deficits” value is on record as “ameliorate scopolamine-induced cognition deficits”.
